Measurements from patent US20180092908A1, “SMALL MOLECULE OXIDIZERS OF PDI AND THEIR USE” (THE TRUSTEES OF COLUMBIA UNIVERSITY IN THE CITY OF NEW YORK, priority 2015, published 2018).
Converted amounts (≈) assume the structure as drawn. Read-outs that look alike come from different tables or passages of the source.

Tests used:
[1] = Mouse microsome stability assay; format: in vitro ADME; conditions: compound 0.5 μM
Protocol: At 0, 5, 15, 30 and 45 minute intervals, an aliquot was taken and quenched with acetonitrile (ACN) containing internal standard. No-cofactor controls at 45 minutes were prepared. Following completion of the experimentation, the samples were analyzed by LC-MS/MS. […] C=initial×exp (−k×t). Intrinsic clearance (CLint) was calculated as liver clearance from the half-life using the following equation: CLint=k×(ml incubation/0.5 mg protein)×(52.5 mg protein/g liver). Results were reported as peak area ratios of analyte to internal standard. The intrinsic clearance (CLint) was determined from the first order elimination constant by non-linear regression. The microsome stability assay, plasma stability assay, and plasma protein binding assay were each performed by Alliance Pharma, Inc. (Malvern, Pa.).

[2] = molecular target: T1, human catalytic PDI A1 a domain (PDIa) (Homo sapiens, UniProt P07237); test: Isothermal titration calorimetry (ITC) binding to PDIa; conditions: PDIa
T1 construct: made in house; host or cells: Escherichia coli BL21-Gold (DE3)
T1 sequence (P07237 with tags, fused parts or gaps): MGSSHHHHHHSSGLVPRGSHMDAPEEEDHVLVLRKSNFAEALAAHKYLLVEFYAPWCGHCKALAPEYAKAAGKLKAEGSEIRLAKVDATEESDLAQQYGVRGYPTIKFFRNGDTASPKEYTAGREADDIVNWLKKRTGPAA

Solubility = conditions: for solubility: Table 4
[3] = molecular target: T2, recombinant catalytic a domain of human PDI A1 (PDIa) (Homo sapiens, UniProt P07237); test: Insulin aggregation assay (PDIa reductase activity); format: biochemical; conditions: Table 5
T2 construct: made in house; host or cells: Escherichia coli BL21-Gold (DE3)
T2 sequence (P07237 with tags, fused parts or gaps): as above
Description: In this insulin aggregation assay (Xu et al., 2012; Jasuja et al., 2012; Khan et al., 2011; Smith et al., 2004), PDIa reduced the two disulfide bonds between the α- and β-chains of insulin, causing the β-chain to aggregate and precipitate, resulting in an increase in absorbance at 650 nm.
To investigate the mode of binding further and to determine whether the binding was reversible or irreversible, the recovery of enzymatic activity of PDIa after dilution of pre-formed concentrated PDIa-LOC14 complexes was analyzed. LOC14 (750 μM) was incubated with a concentrated solution of PDIa (500 μM). The mixture was then diluted 100-fold and PDI's enzymatic activity was measured in the insulin reduction assay. As a control, the same procedure was also performed on the sample containing an irreversible inhibitor, 16F16 (16F16 at 750 μM and PDIa at 500 μM). […] This illustrated that unlike 16F16, LOC14 binding to PDIa is reversible.

physchem = conditions: DMSO, organic solvent or mixture
[4] = molecular target: T1, human catalytic PDI A1 a domain (PDIa); test: Isothermal titration calorimetry (ITC) binding to PDIa; conditions: PDIa; remark: listed apart in the source
Protocol: All ITC experiments were carried out at 25° C. on MicoCal Auto-ITC200 system (GE Healthcare). Reduced PDIa was dialyzed into ITC buffer (20 mM sodium phosphate buffer pH 7.8) and loaded into a sample cell at 40 μM concentration. The compound solution was loaded into a syringe at 400 μM in the same ITC buffer with a final DMSO concentration at 0.4% (v/v). ITC titration experiments were carried out at 25° C. with 19 injections, 2 μl per injection, and 180 seconds between each injection. The reference cell power was set to 5 μcal/sec. A control experiment was performed for each compound, where each compound was titrated into buffer to account for heat released due to dilution. This background was subtracted from test data before a final dissociation constant was obtained. Data were analyzed using a one-site binding model in Origin 7.1 software. […] Gibbs free energy, ΔG, was calculated from equation ΔG=ΔH−TΔS. All other parameters, Ka, n, ΔH, ΔS, were determined directly from the titration data.
For ITC experiments with 16F16 pre-treatment, 40 μM PDIa (after dialysis into ITC buffer) was treated with 200 μM 16F16 for 12-15 hours at 4° C. Next day the whole solution was loaded into the sample cell. LOC14 at 400 μM in ITC buffer was loaded into syringe and titrated into PDIa+16F16 loaded cell. For control experiments, ITC buffer with 200 μM 16F16 was used in the cell, while 400 μM LOC14 in ITC buffer was used in the syringe.
The binding mode of LOC14 to PDIa was next investigated using isothermal titration calorimetry (ITC). ITC measures the heat released or absorbed during a biomolecular interaction. It is a direct analytical method for determining the binding and thermodynamic parameters, such as reaction stoichiometry (n), binding constants (Ka and Kd), enthalpy (ΔH), entropy (ΔS), and free energy (ΔG) of an interaction.

PC12 mHTT^Q103 cells = test: Rescue of PC12 cells from mHTT^Q103 induced cell death (Alamar blue viability); format: cell-based; conditions: Rattus norvegicus
Description: PC12 mHTT^Q103 cells were a gift from Erik S. Schweitzer (UCLA School of Medicine, Los Angeles, Calif.). These cells are stably transfected with the first exon of human HTT gene containing the pathogenic 103 CAG/CAA repeat expansion, under the control of the ecdysteroid promoter (Aiken et al., 2004). The plasmid also contains a Bombyx mori ecdysone receptor gene fused at N-terminal with VP16 transactivation domain (Suhr et al., 1998; Vilaboa et al., 2011). Addition of the ecdysone analog, tebufenozide, to the cell culture medium is used to initiate the transcription of mutant HTT (Aiken et al., 2004).
PC12 mHTT^Q103 cells were cultured in DMEM containing 4.5 g/I glucose, 25 mM HEPES, sodium pyruvate, and no L-glutamine (Mediatech, cat. no. 15-018-CV), supplemented with 10% (v/v) Cosmic Calf serum, 2 mM L-glutamine, 100 units/mL of penicillin-streptomycin, and 0.5 mg/ml active geneticin. Cells were grown at 37° C., 9.5% CO2, and the medium was replaced with fresh medium every 2-3 days. To induce mHTT^Q103 expression for experiments, tebufenozide, a gift from Lynne Moore and Fred H. Gage (The Salk Institute for Biological Studies, La Jolla, Calif.), was added to the medium at 200 nM final concentration from 1 mM stock in 85% ethanol.
LOC mother plates with compounds at 4 mg/ml were thawed and spun down (1000 rpm, 20° C., 1 min) prior to use. Biomek FX (Beckman Coulter) robotic liquid dispenser was used to handle all liquid transferring and mixing. […] Two fold serial dilution was performed across five daughter plates by transferring 50 μl of compounds (at […]) from the D1 plate into 50 μl of PC12 medium in daughter plate D2, mixing, and then repeating the process for the remaining three plates. Daughter plate D1 with compounds at […], daughter plate D3 with compounds at 20 μl/ml and daughter plate D5 with compounds at 5 μl/ml were then used for the screen. Assay plates were set up by seeding tebufenozide-induced PC12 mHTT^Q103 cells into 384-well black, clear-bottom plates (Corning Inc. cat. no. 3712) at a density of 7,500 cells per well in 57 μl PC12 medium without geneticin. Three microliters of compound from the daughter plates (D1, D3, and D5) were added to the assay plates for a final compound concentration of 4 μl/ml, 1 μl/ml, and 0.25 μl/ml. Four wells containing uninduced PC12 mHTT^Q103 cells and four wells containing medium only, were also included on each plate as controls. The assay plates were incubated at 37° C., 9.5% CO2 for 48 hours. Twenty microliters of 40% Alamar blue (Life Technologies cat. no. DAL1100) solution in PC12 medium was added to each well (1:10 final dilution) and the plates were incubated for an additional 12-24 hours at 37° C., 9.5% CO2. Alamar blue fluorescence was read on a fluorescence plate reader (PerkinElmer Victor3) with 530 nm excitation filter and 590 nm emission filter. Each compound concentration was tested in triplicate.
The follow-up testing of primary screen hits was performed in a similar way. Fresh powder stocks of primary hits were re-ordered from vendors, dissolved in DMSO and tested in a two-fold serial dilution across 10 wells in both tebufenozide-induced and uninduced PC12 mHTT^Q103 cells. Dose-response curves were plotted as mean±SD and fit to either four-parameter sigmoidal (for uninduced cells) or bell-shaped (induced) function using Prism (GraphPad Software).
A cascade of two assays was used, involving both a phenotypic high-throughput screening (HTS) assay and an in vitro PDI reductase assay, to identify neuroprotective PDI-inhibiting compounds. […] Alamar blue was used as a fluorescent readout for viability after 48 hours of compound treatment and mHTT^Q103 induction. […] All the candidate hit compounds were re-tested in a two-fold dilution series.

[5] = first site, Table 4, read-out: ITC KD1 (two binding site)
[6] = first site, Table 5, read-out: ITC Assay KD1 (2 binding sites)
[7] = PC-12, Table 5, read-out: Cell Viability Assay EC50
[8] = Table 5, read-out: ITC Assay KD

Row | Structure (SMILES) | Insulin Assay (either active or inactive) [3] | solubility (physchem) | ITC Assay KD ([4]; Table 5) | EC50 (PC12 mHTT^Q103 cells; [7]) | also measured
1 | CCOc1ccc2ccc(=O)oc2c1 [7-Ethoxycoumarin, reference compound] |  |  |  |  | Elimination rate constant (k) ([1]; mouse liver microsomes): 0.2341; Intrinsic Clearance (CLint), mL/min/g liver ([1]; mouse liver microsomes): 24.58 mL/min/g liver; half-life at 0.5 μM ([1]; mouse, liver microsomes, pH 7.4, mouse liver microsomes, read-out: Half-life (t1/2)): 3 min
2 | O=c1c2ccccc2[se]n1-c1ccccc1 [Ebselen, reference compound] |  |  |  |  | Kd [2, 5]: 5.2 nM; Kd ([2]; second site, Table 4, read-out: ITC KD2 (two binding site)): 111 nM; solubility (Solubility): Poor
3 | O=c1c2ccccc2sn1Cc1ccccc1 [LC-5, 2-benzylbenzo[d]isothiazol-3(2H)-one] | Active |  |  |  | Kd [2, 5]: 42.7 nM; Kd [2, 6]: 42.7 nM; Kd ([2]; read-out: ITC Assay KD2 (2 binding sites), second site, Table 5): 2270 nM; Solubility in DMSO (Solubility; Table 5): 100 mM in DMSO
4 | O=C(Nc1ccccc1)n1sc2ccccc2c1=O [LC-6, 3-oxo-N-phenylbenzo[d]isothiazole-2(3H)-carboxamide] | not active | 50 mM (≈ 13500 µg/mL) | KD = N/A irreversible or not active | 476 nM | ITC KD ([4]; Table 4): KD = not active
5 | CC(C)(C)OC(=O)NC1CCN(Cn2sc3ccccc3c2=O)CC1 [LC-8] | Active | 50 mM (≈ 18200 µg/mL) |  | 384 nM | Kd ([4]; Table 4, read-out: ITC KD): 94.3 nM; Kd [4, 8]: 94.3 nM; Solubility in DMSO (Solubility; Table 5): 50 mM in DMSO
6 | O=c1c2ccccc2sn1CN1CCN(Cn2sc3ccccc3c2=O)CC1 [LC-9, 2,2′-(piperazine-1,4-diylbis(methylene))bis(benzo[d]isothiazol-3(2H)-one)] | Active | < 6.75 mM |  | 173 nM | solubility (Solubility): poor solubility; Solubility (words, printed in ITC Assay column) (Solubility; Table 5): poor solubility
7 | O=C(C1CC1)N1CCN(C(=O)n2sc3ccccc3c2=O)CC1 [LC-14] | not active | 30 mM (≈ 9940 µg/mL) | KD = N/A irreversible or not active | > 50000 nM | 
8 | O=C(C1CC1)N1CCN(Cn2sc3ccc(Cl)cc3c2=O)CC1 [LC-15, 5-chloro-2-((4-(cyclopropanecarbonyl)piperazin-1-yl)methyl)benzo[d]isothiazol-3(2H)-one] | Active | 20 mM (≈ 7040 µg/mL) |  | 467 nM | Kd ([4]; Table 4, read-out: ITC KD): 114 nM; Kd [4, 8]: 114 nM
9 | CC(C)(C)OC(=O)N1CCC(COc2nsc3ccccc23)CC1 [LC-16] | not active | 50 mM (≈ 17400 µg/mL) | KD = N/A irreversible or not active | > 50000 nM | 
10 | O=c1c2ccccc2sn1-c1ccccc1 [LC-24] | not active | 50 mM (≈ 11400 µg/mL) |  |  | Kd [2, 6]: 8.1 nM; EC50 (PC12 mHTT^Q103 cells; PC-12, read-out: Cell Viability Assay EC50): 1130 nM
11 | O=c1c2ccccc2sn1-c1ccc(N2CCOCC2)cc1 [LC-27] | not active | 30 mM (≈ 9370 µg/mL) | KD = N/A irreversible or not active | 1830 nM | 
12 | O=c1[nH]sc2ncccc12 [LC-47] | not active | 50 mM (≈ 7610 µg/mL) | KD = N/A irreversible or not active | > 50000 nM | 
13 | Cc1cc(C)c2c(=O)n(CN3CCN(C(=O)C4CC4)CC3)sc2n1 [LC-53] | Active | 25 mM (≈ 8660 µg/mL) |  | 4200 nM | 
